Assay results taken from article PMC12586182 (Frontiers in Oncology, 2025).

Experiments:
Assay in all cases: Kinase panel profiling at 1 µmol/L (mobility shift assay, Carna)
Assay type in all cases: biochemical
Conditions in all cases: 1 µmol/L of BTK inhibitor
NEK6 = molecular target: T1, NEK6 (Homo sapiens, UniProt Q9HC98)
T1 construct: purchased Carna Biosciences

TBK1 = molecular target: T2, TBK1 (Homo sapiens, UniProt Q9UHD2)
T2 construct: purchased Carna Biosciences
T2 sequence (Q9UHD2 1-729): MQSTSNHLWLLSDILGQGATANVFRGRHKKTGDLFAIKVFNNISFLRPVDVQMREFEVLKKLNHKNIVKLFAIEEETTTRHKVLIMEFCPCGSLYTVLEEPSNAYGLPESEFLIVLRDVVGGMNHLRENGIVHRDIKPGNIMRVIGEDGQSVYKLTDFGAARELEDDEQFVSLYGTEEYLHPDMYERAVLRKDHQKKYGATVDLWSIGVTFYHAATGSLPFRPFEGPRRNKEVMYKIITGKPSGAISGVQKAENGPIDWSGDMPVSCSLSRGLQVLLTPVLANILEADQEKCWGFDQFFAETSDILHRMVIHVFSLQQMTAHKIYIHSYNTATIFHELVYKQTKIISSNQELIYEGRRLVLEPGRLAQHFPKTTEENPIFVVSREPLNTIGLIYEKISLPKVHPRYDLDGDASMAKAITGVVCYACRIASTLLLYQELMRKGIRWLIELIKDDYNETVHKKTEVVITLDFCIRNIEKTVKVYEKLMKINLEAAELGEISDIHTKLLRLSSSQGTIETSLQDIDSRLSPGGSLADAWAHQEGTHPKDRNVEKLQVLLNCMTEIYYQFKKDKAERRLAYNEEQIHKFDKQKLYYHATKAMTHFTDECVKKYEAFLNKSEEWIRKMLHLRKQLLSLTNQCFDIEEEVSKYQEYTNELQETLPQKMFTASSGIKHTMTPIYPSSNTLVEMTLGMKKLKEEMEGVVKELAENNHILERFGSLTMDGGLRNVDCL

FGR = molecular target: T3, FGR (Homo sapiens, UniProt P09769)
T3 construct: purchased Carna Biosciences

PKCβ1 = molecular target: T4, PKCβ1 (Homo sapiens, UniProt P05771)
T4 construct: purchased Carna Biosciences

CaMK2δ = molecular target: T5, CaMK2δ (Homo sapiens, UniProt Q13557)
T5 construct: purchased Carna Biosciences

TXK = molecular target: T6, TXK (Homo sapiens, UniProt P42681)
T6 construct: purchased Carna Biosciences
T6 sequence (P42681 1-527): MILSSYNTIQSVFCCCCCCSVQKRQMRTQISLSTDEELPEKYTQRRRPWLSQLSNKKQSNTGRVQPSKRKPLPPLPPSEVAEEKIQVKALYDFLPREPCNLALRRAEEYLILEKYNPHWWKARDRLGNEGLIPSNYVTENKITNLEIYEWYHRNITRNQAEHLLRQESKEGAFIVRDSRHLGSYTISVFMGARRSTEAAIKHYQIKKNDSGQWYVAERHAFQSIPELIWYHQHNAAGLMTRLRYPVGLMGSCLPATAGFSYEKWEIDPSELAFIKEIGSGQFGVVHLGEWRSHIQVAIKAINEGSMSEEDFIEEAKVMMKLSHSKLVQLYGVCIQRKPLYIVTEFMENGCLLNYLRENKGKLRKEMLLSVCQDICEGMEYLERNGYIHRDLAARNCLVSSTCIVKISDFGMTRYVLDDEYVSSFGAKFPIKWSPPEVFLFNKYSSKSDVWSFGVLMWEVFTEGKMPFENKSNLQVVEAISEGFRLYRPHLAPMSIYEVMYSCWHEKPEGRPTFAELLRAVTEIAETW

CK1ε = molecular target: T7, CK1ε (Homo sapiens, UniProt P49674)
T7 construct: purchased Carna Biosciences

PKD2 = molecular target: T8, PKD2 (Homo sapiens, UniProt Q9BZL6)
T8 construct: purchased Carna Biosciences
T8 sequence (Q9BZL6 1-878): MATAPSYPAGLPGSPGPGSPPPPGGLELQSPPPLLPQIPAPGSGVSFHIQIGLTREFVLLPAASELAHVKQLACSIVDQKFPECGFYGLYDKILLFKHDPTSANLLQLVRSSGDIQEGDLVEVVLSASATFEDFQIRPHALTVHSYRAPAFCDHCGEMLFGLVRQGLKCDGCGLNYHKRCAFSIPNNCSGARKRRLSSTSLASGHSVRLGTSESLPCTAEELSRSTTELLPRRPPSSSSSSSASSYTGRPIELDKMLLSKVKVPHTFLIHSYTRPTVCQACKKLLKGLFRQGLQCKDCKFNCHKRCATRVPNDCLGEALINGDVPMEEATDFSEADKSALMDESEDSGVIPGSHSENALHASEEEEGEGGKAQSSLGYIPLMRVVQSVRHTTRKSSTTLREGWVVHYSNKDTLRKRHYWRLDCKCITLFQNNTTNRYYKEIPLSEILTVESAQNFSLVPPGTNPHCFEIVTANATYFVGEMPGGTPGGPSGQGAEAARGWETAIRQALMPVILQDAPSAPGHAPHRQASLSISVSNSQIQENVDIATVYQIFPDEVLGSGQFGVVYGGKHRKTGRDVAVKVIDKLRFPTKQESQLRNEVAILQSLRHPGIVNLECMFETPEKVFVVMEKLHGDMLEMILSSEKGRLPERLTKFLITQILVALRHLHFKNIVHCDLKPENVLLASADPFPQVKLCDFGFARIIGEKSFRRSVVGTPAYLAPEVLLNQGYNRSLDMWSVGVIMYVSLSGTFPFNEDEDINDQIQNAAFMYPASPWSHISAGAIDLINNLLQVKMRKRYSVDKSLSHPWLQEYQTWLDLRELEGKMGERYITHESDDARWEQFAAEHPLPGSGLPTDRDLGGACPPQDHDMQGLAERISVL

AMPKα1/β1/γ1 = molecular target: T9, AMPKα1/β1/γ1 (Homo sapiens, UniProt Q13131)
T9 construct: purchased Carna Biosciences

FMS = molecular target: T10, FMS (Homo sapiens, UniProt P07333)
T10 construct: purchased Carna Biosciences

LYNa = molecular target: T11, LYNa (Homo sapiens, UniProt P07948)
T11 construct: purchased Carna Biosciences

CaMK2γ = molecular target: T12, CaMK2γ (Homo sapiens, UniProt Q13555)
T12 construct: purchased Carna Biosciences

FYN [isoform a] = molecular target: T13, FYN [isoform a] (Homo sapiens, UniProt P06241)
T13 construct: purchased Carna Biosciences

T3 sequence (P09769 whole entry): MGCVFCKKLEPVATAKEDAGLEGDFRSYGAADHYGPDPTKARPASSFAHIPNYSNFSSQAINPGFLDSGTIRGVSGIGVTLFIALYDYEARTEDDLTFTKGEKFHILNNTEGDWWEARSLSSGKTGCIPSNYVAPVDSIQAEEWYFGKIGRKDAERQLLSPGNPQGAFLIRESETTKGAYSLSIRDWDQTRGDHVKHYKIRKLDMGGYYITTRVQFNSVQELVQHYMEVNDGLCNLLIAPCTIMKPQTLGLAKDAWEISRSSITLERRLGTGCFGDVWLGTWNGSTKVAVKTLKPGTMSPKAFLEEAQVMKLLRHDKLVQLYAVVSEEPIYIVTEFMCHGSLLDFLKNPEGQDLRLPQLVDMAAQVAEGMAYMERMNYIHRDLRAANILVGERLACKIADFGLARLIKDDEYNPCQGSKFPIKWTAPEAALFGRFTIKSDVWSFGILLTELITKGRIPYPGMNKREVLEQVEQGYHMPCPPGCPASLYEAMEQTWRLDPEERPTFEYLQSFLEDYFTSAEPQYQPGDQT
T10 sequence (P07333 20-972): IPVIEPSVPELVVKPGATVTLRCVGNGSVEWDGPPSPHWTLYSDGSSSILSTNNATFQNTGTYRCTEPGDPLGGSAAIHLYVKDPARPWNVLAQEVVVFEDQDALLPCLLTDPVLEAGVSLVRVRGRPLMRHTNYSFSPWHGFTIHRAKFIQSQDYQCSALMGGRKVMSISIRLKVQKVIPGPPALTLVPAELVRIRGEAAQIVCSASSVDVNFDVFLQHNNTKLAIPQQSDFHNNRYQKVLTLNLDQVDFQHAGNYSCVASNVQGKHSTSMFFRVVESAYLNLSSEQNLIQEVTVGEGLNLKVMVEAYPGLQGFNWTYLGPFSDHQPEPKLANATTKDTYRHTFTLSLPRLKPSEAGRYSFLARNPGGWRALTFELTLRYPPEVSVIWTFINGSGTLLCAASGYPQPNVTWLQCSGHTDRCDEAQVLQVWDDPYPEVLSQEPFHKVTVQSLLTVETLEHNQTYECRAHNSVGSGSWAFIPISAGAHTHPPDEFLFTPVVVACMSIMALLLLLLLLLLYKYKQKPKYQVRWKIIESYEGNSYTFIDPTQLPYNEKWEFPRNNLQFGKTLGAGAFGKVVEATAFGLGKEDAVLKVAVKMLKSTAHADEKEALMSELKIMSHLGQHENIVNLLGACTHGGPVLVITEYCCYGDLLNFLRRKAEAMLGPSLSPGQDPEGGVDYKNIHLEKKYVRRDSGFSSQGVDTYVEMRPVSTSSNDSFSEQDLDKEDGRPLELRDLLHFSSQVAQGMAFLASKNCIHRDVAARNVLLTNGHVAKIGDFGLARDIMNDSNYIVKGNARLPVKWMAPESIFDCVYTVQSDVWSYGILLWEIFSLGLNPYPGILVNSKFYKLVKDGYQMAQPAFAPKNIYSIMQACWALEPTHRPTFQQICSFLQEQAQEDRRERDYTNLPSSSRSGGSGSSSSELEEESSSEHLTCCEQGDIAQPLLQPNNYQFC
T5 sequence (Q13557 whole entry): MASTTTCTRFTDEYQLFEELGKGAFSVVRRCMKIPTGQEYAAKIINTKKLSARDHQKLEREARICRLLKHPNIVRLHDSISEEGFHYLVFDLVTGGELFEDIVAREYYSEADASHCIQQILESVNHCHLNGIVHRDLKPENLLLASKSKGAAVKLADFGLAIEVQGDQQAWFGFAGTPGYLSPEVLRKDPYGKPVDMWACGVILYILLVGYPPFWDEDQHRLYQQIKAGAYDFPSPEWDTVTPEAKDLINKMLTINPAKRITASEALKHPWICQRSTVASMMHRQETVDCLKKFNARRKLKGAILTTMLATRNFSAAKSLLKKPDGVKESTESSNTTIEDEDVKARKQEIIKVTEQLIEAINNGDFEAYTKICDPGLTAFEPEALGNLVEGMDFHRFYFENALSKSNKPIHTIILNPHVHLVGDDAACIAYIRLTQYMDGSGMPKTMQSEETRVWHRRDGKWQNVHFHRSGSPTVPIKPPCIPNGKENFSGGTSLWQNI
T11 sequence (P07948 whole entry): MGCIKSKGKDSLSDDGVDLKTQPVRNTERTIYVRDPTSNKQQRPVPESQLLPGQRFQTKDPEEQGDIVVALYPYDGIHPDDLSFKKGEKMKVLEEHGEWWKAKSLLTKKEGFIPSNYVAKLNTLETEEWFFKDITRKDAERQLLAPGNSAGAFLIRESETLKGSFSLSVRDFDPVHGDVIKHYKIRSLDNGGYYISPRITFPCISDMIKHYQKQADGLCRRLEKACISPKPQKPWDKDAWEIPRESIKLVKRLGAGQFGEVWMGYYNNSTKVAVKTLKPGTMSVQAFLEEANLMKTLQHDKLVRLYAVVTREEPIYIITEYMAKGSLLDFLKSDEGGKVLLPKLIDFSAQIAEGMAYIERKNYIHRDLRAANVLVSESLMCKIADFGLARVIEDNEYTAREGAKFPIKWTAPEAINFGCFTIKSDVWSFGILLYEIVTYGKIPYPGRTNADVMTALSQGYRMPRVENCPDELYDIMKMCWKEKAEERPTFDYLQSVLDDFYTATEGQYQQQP
T1 sequence (Q9HC98 whole entry): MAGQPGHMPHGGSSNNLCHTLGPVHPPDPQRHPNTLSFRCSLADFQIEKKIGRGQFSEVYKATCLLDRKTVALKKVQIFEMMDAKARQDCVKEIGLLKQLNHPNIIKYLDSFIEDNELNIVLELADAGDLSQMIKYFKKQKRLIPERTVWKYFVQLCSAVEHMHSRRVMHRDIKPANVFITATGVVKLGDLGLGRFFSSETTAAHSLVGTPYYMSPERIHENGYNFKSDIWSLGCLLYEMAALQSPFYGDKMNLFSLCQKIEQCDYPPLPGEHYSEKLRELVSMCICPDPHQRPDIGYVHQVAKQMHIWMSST
T9 sequence (Q13131 whole entry): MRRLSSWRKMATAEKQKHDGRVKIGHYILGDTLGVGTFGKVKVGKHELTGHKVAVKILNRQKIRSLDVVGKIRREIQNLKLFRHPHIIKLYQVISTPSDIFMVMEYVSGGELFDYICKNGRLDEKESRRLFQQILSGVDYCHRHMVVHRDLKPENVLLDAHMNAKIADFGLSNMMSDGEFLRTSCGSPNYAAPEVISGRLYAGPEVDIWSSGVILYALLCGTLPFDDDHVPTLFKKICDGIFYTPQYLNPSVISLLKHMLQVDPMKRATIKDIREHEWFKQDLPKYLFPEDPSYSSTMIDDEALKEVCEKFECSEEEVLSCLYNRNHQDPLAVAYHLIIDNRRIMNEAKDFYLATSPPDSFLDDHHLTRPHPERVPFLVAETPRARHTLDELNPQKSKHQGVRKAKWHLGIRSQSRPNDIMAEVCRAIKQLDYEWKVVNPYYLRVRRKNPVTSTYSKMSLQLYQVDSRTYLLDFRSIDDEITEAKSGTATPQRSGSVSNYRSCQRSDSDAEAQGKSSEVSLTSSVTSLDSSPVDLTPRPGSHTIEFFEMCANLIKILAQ
T9 sequence (Q9Y478 whole entry partner): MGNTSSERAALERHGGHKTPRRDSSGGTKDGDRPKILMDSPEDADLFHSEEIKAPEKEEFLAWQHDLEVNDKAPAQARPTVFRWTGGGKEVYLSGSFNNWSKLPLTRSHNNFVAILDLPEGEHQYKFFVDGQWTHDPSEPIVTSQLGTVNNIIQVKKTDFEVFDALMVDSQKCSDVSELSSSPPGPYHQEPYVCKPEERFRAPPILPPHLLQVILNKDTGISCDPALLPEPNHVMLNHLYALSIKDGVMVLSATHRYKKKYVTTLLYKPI
T9 sequence (P54619 whole entry partner): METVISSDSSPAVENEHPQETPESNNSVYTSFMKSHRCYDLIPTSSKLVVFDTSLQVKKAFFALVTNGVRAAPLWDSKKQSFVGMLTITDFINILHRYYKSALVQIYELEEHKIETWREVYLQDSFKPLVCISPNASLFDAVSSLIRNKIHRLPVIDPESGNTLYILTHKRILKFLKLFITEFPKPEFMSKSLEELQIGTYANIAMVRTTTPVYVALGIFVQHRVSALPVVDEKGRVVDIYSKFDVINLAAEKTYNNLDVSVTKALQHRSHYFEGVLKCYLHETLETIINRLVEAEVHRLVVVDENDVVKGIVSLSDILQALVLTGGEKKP
T4 sequence (P05771 whole entry): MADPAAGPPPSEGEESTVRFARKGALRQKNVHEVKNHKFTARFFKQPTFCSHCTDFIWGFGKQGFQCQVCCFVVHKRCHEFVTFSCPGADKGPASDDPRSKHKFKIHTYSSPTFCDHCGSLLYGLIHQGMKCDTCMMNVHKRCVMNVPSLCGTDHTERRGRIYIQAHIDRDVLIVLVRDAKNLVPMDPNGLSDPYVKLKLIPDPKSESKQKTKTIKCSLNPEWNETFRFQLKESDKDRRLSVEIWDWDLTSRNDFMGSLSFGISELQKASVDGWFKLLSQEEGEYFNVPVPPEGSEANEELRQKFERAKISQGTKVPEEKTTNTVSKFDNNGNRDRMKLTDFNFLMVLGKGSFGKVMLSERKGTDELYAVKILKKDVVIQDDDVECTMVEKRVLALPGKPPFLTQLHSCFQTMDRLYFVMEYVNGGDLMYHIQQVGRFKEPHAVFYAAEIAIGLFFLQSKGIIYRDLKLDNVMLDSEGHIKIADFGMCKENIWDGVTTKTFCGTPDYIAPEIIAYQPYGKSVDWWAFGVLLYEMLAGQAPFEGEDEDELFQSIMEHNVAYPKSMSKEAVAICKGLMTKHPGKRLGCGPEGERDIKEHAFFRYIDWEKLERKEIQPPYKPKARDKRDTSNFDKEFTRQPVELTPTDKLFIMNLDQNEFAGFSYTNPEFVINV

| Structure (SMILES) | Percentage inhibition of kinase enzyme activity (NEK6) [%] | Percentage inhibition of kinase enzyme activity (TBK1) [%] | Percentage inhibition of kinase enzyme activity (FGR) [%] | Percentage inhibition of kinase enzyme activity (PKCβ1) [%] | Percentage inhibition of kinase enzyme activity (CaMK2δ) [%] | Percentage inhibition of kinase enzyme activity (TXK) [%] | Percentage inhibition of kinase enzyme activity (CK1ε) [%] | Percentage inhibition of kinase enzyme activity (PKD2) [%] | Percentage inhibition of kinase enzyme activity (AMPKα1/β1/γ1) [%] | Percentage inhibition of kinase enzyme activity (FMS) [%] | Percentage inhibition of kinase enzyme activity (LYNa) [%] | Percentage inhibition of kinase enzyme activity (CaMK2γ) [%] | Percentage inhibition of kinase enzyme activity (FYN [isoform a]) [%] |
| --- | --- | --- | --- | --- | --- | --- | --- | --- | --- | --- | --- | --- | --- |
| O=C(c1ccc(Oc2ccccc2)cc1Cl)c1c[nH]c2ncnc(N[C@@H]3CC[C@@H](CO)OC3)c12 [nemtabrutinib] | -0.80 | 1.71 | 90.23 | -3.07 | 14.10 | 97.01 | 95.45 | 7.65 | 12.21 | 101.94 | 100.76 | 1.06 | – |
| CC#CC(=O)N1CCC[C@H]1c1nc(-c2ccc(C(=O)Nc3ccccn3)cc2)c2c(N)nccn12 [acalabrutinib] | -5.54 | 2.14 | 2.91 | -10.97 | -3.53 | 67.66 | -10.49 | -9.88 | -4.92 | 7.76 | 1.93 | -1.85 | 5.84 |
| COc1ccc(F)cc1C(=O)NCc1ccc(-c2nn([C@@H](C)C(F)(F)F)c(N)c2C(N)=O)cc1 [pirtobrutinib] | -2.92 | 2.58 | 18.17 | 5.78 | -7.24 | 43.03 | 15.87 | -6.50 | -7.93 | -8.86 | 46.22 | -1.71 | 12.27 |
| C=CC(=O)N1CCC([C@@H]2CCNc3c(C(N)=O)c(-c4ccc(Oc5ccccc5)cc4)nn32)CC1 [zanubrutinib] | – | – | 2.22 | – | – | 89.43 | – | – | – | 82.03 | – | – | – |
| C=CC(=O)N1CCC[C@@H](n2nc(-c3ccc(Oc4ccccc4)cc3)c3c(N)ncnc32)C1 [ibrutinib] | 0.77 | 0.83 | 99.02 | -2.90 | -0.83 | 98.38 | 49.55 | -3.20 | – | 18.52 | 98.69 | -1.83 | 92.75 |
